Laboratory results published in patent US20170127693A1, “NUTRITIONAL COMPOSITIONS CONTAINING BUTYRATE AND USES THEREOF” (Mead Johnson Nutrition Company, priority 2015, published 2017).

Assay type: physicochemical
Text: The dietary butyrate can comprise a phenylalanine amide derivative of butyric acid. In fact, use of a phenylalanine amide derivative of butyric acid provides for improved organoleptic and physicochemical characteristics as it is an odorless and colorless solid crystalline powder. Furthermore, the purification of phenylalanine amide derivatives of butyric acid may be particularly economical for purification in terms of the cost to purify versus the yield of compound ratio. Accordingly, in certain embodiments, the dietary butyrate may comprise an acid-stable butyrate amide with the amino acid phenylalanine, such as phenylalanine-butyramide (“FBA”). […] Moreover, the solubility of FBA in water is satisfactory as it produces clear solutions up to the concentration 0.1 M and suspensions at higher concentrations. Accordingly, FBA is a suitable form of dietary butyrate that may be incorporated into powdered nutritional compositions that are to be reconstituted with water or some other type of liquid.

- solubility in water (concentration up to which clear solutions are produced): ≤ 100 mM
- stability to acids and alkalis: stable to acids and alkalis
Substance: phenylalanine-butyramide [FBA]
